This note sets out measurements from US20260077055A1, “COMPOSITIONS OF POLYPLEXES AND SAPONINS” (SAPREME TECHNOLOGIES B.V., priority 2022, published 2026).

The subject of one series is EGFR+ A431 cells. Description: Cell viability (MTS) after polyplex transfection of A431 cells. The format is cell-based. The note with it: for cell killing activity / saporin gene delivery, K16C npSaporin polyplexes: K16C alone up to about 5000 μM of plasmids (printed), SO1861-EMCH = free, co-administered with K16C-polyplexes. The procedure: Spectrophotometry: Concentrations were determined using either a Thermo Nanodrop 2000 spectrometer or Perkin Elmer Lambda 365 Spectrophotometer. DLS measurements: DLS measurements were performed on a Malvern Nano ZS (Malvern Instruments, U.K.), operating at 633 nm with a 173° scattering angle, at 25 or 37° C. DLS mean diameters were obtained from the intensity particle size distribution provided by Malvern Zetasizer Software. DLS histograms were obtained from the intensity particle size distributions. Zeta-potential: The zeta-potential values of the polyplexes were obtained by laser doppler anemometry (LDA), measuring the mean electrophoretic mobility (Malvern Zetasizer Nano ZS, Malvern Instruments, U.K.). Measurements were performed in 10 mM HEPES pH 7.1, 150 mM NaCl. TEM measurements: TEM measurements were performed on a JEOL JEM-1011 operated at 100 kV electron microscope, equipped with a camera S5 MegaView G2. A drop of a solution of polyplexes (0.1 mg/mL) was settled on a PELCO® TEM carbon type-B film copper grid and allowed to dry at room temperature for 1 h. Infrared Spectroscopy: FT-IR spectra were recorded on a Bruker Vertex 70v, equipped with a RockSolid interferometer, after preparing the samples (1-2 mg) as KBr pellets. Spectra were processed using OPUS 7.8 software (Bruker). NMR Spectroscopy: 1H NMR spectra were recorded on a 11.7 T Bruker DRX-500 spectrometer. Chemical shifts are reported in ppm (o units) downfield from the HOD residual solvent peak (CD3OD). Experiments were recorded acquiring 64-512 scans, with a pre-scan delay (d1) of 12 s, and an acquisition time (aq) of 4 s at 300 K. 13C NMR spectrum was recorder on a 9.39 T Varian Innova 400 spectrometer. MestReNova 14.2 software (Mestrelab Research) was used for spectra processing. Cell culture conditions and treatments: HEK293FT, A431, A2058, Neuro2A, Hepa1-6 and MDA-MB 468 were maintained in 10% FBS-supplemented DMEM medium (PAN-Biotech GmbH, or Lonza Group, Basel, Switzerland)+Pen/Strep at 37° C. with 5% CO2. […] SO1861-EMCH was conjugated into/onto these polyplexes or co-administrated at 966 or 4000 nM to the different cell lines in vitro (as indicated). For this, cells were seeded in a 96 well plate at 5.000-10.000 c/w in 100 μL/well and incubated overnight at 37° C. Before treatment, the mAb-SO1861 and polyplexes were diluted separately in DPBS (PAN-Biotech GmbH) to 10× the required final concentration. The cells received 80 μL/well fresh media, followed by 20 μL/well polyplex solution and 20 μL/well saponin solution. In particular, before K16-polyplex treatments, K16-polyplexes were formulated in 10 mM HEPES, incubated for 30 min at room temperature and then diluted with complete cell culture medium. The complete cell culture medium was exchanged against 100 μL transfection medium. For co-administration of SO1861-EMCH, the transfection medium was supplemented with 2 μg/mL (=966 nM) SO1861-EMCH. Control transfections were performed with Lipofectamine™ 3000 Transfection Reagent (Thermo Fisher Scientific) according to the manufacturer's instruction, using either […] or 100 ng plasmid and with a media change 4-5 hrs after transfection. […] After treatment, the cells were incubated for 72 hr at 37° C. before the cell viability was determined by a MTS-assay performed according to the manufacturer's instruction (CellTiter 96® AQueous One Solution Cell Proliferation Assay, Promega). […]

In another series the test system is red blood cells (RBCs). Description: Haemolysis assay. The format is cell-based, human. The note with it: 2.5-80 μg/mL, 3 h at 37° C. The protocol:
To get a first estimation of the haemolytic activity of the scaffolds and its potential to induce aggregation of red blood cells, possible disruption of red blood cells was investigated by measuring the release of haemoglobin into the supernatant according to the scheme shown in FIG. 24A. First, the red blood cells (RBCs) were treated with solutions containing PAMAM- or peptide-based scaffolds or polyplexes obtained therewith at different concentrations (2.5-80 μg/mL). The incubation was performed for 3 h at 37° C. RBCs treated with PBS under same conditions were used as a negative control while samples treated with Triton X-100 (10%) were used as a positive control corresponding to conditions of full haemolysis. After centrifugation, the absorbance at 540 nm (OD540) of the supernatants was recorded with a spectrometer. The following equation was used for the calculation of the percentages of haemolysis: […]

The next series has as its system RBCs. Description: Erythrocyte aggregation under optical microscope. The settings on record: up to 80 μg/mL.
For the next series, the system named is intrinsic pathway. Description: Activated partial thromboplastin time in fresh whole blood. The note with it: 0.1 μM; reference 26-40 s.
For series [1], the system named is extrinsic part of the coagulation cascade. Description: Prothrombin time in fresh whole blood. The note with it: reference 70-130%.
Protocol: (§1) As a next step, the erythrocyte aggregation propensity of the scaffolds was examined under an optical microscope to visualize possible interactions of the scaffolds and polyplexes with RBCs and their surface (FIG. 24C). […] Next, the impact on haemostasis was investigated. […] Consequently, to investigate the impact of the PAMAM- and peptide-based scaffolds on the patient's blood coagulation, these two parameters were measured in fresh whole blood after incubation of nanoparticles at different concentrations (0 nM-5 μM).

Where a SMILES comes first, the peptide text is derived from it. [ ]: non-standard residue; d: D form. Lys(N3) = [N-]=[N+]=NCCCC[C@H](N)C(=O)O

Protocol for intrinsic pathway: as §1

In the case of “K16G4CGGYK (N3)-SO18610.25 [K16C-(SO1861)0.25 eq]”, the “cell killing activity / saporin gene delivery, K16C npSaporin polyplexes” value in the series with EGFR+ A431 cells is “the most efficient in saporin gene delivery into the cytoplasm”.

Consider `[N-]=[N+]=NCCCC[C@H](NC(=O)[C@H](Cc1ccc(O)cc1)NC(=O)CNC(=O)CNC(=O)[C@H](CS)NC(=O)CNC(=O)CNC(=O)CNC(=O)CNC(=O)[C@H](CCCCN)NC(=O)[C@H](CCCCN)NC(=O)[C@H](CCCCN)NC(=O)[C@H](CCCCN)NC(=O)[C@H](CCCCN)NC(=O)[C@H](CCCCN)NC(=O)[C@H](CCCCN)NC(=O)[C@H](CCCCN)NC(=O)[C@H](CCCCN)NC(=O)[C@H](CCCCN)NC(=O)[C@H](CCCCN)NC(=O)[C@H](CCCCN)NC(=O)[C@H](CCCCN)NC(=O)[C@H](CCCCN)NC(=O)[C@H](CCCCN)NC(=O)[C@@H](N)CCCCN)C(N)=O` [K16C, K16G4CGGYK (N3)] (H-KKKKKKKKKKKKKKKKGGGGCGGY[Lys(N3)]-NH2), for which the haemolytic activity result with red blood cells (RBCs) was “surprisingly low haemolysis degree”. Further, in the series on RBCs, the erythrocyte aggregation result was “did not cause any RBC aggregation”. The “cell killing activity / saporin gene delivery, K16C npSaporin polyplexes” value with EGFR+ A431 cells is listed as “practically no cell killing activity”. The “cell killing activity of K16C npSaporin polyplex” value with EGFR+ A431 cells (up to about 1000 pM of plasmid, absence of free saponin or targeted saponin, N/P ratio 10) is listed as “practically no enhanced cell killing activity”. Further, in the series with intrinsic pathway, the “partial thromboplastin time (PTT)” value turned out to be 38.5 s. Further, the “prothrombin time (PT)” value is given as 100% in series [1] (0.1 μM), 82% in series [1] (0.5 μM), 61% in series [1] (1 μM) and 33.5% in series [1] (5 μM).
